Entries after “also recorded” stand apart in the source; their conditions may differ. Like-named read-outs stand apart in the source and are kept apart here.
Experiments:
[1] = tested on: patients with Alzheimer's disease or patients with cerebrovascular dementia; conditions: reported in literature; cited from earlier work
[2] = Approximate solubility by manual dilution and visual observation; type: physicochemical; conditions: 25° C.; for solubility: thermodynamic from solid, read-out: Solubility at 25° C. S
Procedure: The approximate solubility of the calcium salt in different solvents at 25° C. was tested by manual dilutions in combination with visual observation.

[3] = Crystal polymorph screening by the heating method; type: physicochemical; conditions: open vial, oven 60° C. or 80° C.
Procedure: 30 mg of the compound of Synthesis Example 12 was placed in an open vial, and incubated in an oven heated to 60° C. or 80° C. for 19 hours or for 91 hours. After completion of the incubation, XRPD analysis and polarizing microscope observation were performed. FIG. 26 and FIG. 27 show the results.

SMILES: NC(=O)[C@@H]1CCCN1C(=O)[C@H](Cc1cnc[nH]1)NC(=O)[C@@H]1CCC(=O)N1 [TRH]
- Effect on arousal, mood, semantic memory in patients [1]: improve the level of arousal, mood, semantic memory

SMILES: CCCCCC[C@@H](CCC)C(=O)[O][Ca][O]C(=O)[C@@H](CCC)CCCCCC [Compound of Synthesis Example 12, calcium (R)-2-propyloctanoate (S)-2-propyloctanoate]
- solubility ([2]; 2-propanol (printed 2-Promanol), organic solvent or mixture, 2-Promanol): > 210 mg/mL
- Solubility in words ([2]; different solvents): poorly soluble in water; also recorded: dissolved in ethanol, 2-propanol, MtBE, EA, and THF
- solubility ([2]; organic solvent or mixture, Acetone): < 1.7 mg/mL
- solubility ([2]; organic solvent or mixture, CAN): < 1.5 mg/mL
- solubility ([2]; organic solvent or mixture, EA): > 199 mg/mL
- solubility ([2]; organic solvent or mixture, Ethanol): > 185 mg/mL
- solubility ([2]; organic solvent or mixture, MEK): 94.4 to 189 mg/mL
- solubility ([2]; organic solvent or mixture, MtBE): > 215 mg/mL
- solubility ([2]; organic solvent or mixture, THF): > 198 mg/mL
- solubility ([2]; Water): < 1 mg/mL
- Changes in morphology or XRPD pattern on heating ([3]; 19 hours): no changes in morphology or XRPD pattern were observed
- Morphological changes on heating ([3]; 91 hours): no morphological changes of the compound were observed

Reference: US10828303B2, “Composition comprising combination of TRH analog with arundic acid, and pharmaceutically acceptable salt of arundic acid” (Brivention Pharmaceutical (Shanghai) Inc., priority 2016, dated 2020)
